Patent US20230382924A1, “MODULATORS OF CYSTIC FIBROSIS TRANSMEMBRANE CONDUCTANCE REGULATOR” (VERTEX PHARMACEUTICALS INCORPORATED, priority 2020, published 2023)
Read-outs that look alike come from different tables or passages of the source.

Target: CFTR (Homo sapiens, UniProt P13569)
Test: Membrane Potential Dye, Enteroid Assay A
Format: cell-based
Settings: for EC50: read-out: Ent. A EC50
Summary of the method: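 Enteroid cells were loaded with methyl oxonol membrane potential dye (plus CaCCinh-A01 and Chicago Sky Blue) for 25 min at room temperature. Chloride transport was started by switching to chloride-free gluconate stimulation solution, with fluorescence read for 15 min. Activity was expressed as % of a triple-combination CFTR modulator control (3 μM, 3 μM, 300 nM acute).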

Chain of CFTR (P13569 with tags, fused parts or gaps DEL508-508): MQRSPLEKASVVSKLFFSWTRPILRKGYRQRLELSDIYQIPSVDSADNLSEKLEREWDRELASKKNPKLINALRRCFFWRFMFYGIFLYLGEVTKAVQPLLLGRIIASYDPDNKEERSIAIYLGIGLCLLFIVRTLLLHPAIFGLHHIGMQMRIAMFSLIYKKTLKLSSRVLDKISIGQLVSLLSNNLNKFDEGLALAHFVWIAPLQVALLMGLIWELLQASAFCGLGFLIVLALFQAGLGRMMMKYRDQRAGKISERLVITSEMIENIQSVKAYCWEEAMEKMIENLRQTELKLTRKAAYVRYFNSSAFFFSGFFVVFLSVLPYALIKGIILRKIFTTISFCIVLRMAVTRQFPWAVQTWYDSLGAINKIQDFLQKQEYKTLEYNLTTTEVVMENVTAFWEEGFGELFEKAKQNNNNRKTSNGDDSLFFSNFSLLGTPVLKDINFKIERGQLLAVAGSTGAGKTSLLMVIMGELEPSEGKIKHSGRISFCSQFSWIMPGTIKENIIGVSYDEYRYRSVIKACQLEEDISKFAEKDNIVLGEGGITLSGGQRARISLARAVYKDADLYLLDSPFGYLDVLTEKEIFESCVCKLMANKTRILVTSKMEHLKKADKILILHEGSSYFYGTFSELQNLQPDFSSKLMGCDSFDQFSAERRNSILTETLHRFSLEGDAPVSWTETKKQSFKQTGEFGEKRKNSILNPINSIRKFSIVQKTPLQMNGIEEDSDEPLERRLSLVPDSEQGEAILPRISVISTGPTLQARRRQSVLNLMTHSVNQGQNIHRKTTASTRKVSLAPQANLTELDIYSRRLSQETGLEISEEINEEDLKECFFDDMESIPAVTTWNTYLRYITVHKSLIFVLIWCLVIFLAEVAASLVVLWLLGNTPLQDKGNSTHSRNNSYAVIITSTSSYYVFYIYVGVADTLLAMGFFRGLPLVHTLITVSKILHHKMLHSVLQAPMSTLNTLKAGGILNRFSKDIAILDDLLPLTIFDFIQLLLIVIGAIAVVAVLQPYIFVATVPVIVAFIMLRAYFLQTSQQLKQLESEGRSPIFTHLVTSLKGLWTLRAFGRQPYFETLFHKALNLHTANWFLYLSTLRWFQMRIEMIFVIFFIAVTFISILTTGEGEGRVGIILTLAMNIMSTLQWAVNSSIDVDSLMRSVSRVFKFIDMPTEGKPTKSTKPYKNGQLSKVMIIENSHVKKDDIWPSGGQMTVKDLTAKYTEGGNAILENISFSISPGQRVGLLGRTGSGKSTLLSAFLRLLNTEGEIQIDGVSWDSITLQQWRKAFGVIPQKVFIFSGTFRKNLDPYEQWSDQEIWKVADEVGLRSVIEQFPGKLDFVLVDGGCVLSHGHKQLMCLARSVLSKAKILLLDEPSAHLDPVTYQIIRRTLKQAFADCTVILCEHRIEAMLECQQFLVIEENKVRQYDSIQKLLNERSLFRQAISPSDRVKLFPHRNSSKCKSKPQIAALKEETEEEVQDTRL

Structure (SMILES)	Ent. A Max Activity (Enteroid Assay A)	EC50 (Enteroid Assay A) [µM]	also measured
Cc1cccc(C)c1-c1cc2nc(n1)NS(=O)(=O)c1cccc(c1)C(=O)N[C@@H]1CCCC[C@@H]1O2 [Compound 363]	++ (++ is 30-60%)	1 to 3	–
Cc1cccc(C)c1-c1cc2nc(n1)NS(=O)(=O)c1cccc(c1)C(=O)N[C@H]1CCCC[C@H]1O2 [Compound 364]	++ (++ is 30-60%)	3 to 30	–
CCC(C)(C)C(=O)N1CC[C@H]2Oc3cc(-c4c(C)cccc4C)nc(n3)NS(=O)(=O)c3cccc(c3)C(=O)N[C@@H]2C1 [Compound 370]	–	–	Ent. A Max Activity (Table 9): +++ (+++ is >60%); EC50 (Table 9): 1 to 3 µM
Cc1cccc(C)c1-c1cc2nc(n1)NS(=O)(=O)c1cccc(c1)C(=O)N[C@@H]1CN(C(C)C)CC[C@H]1O2 [Compound 373]	–	–	Ent. A Max Activity (Table 9): +++ (+++ is >60%); EC50 (Table 9): 1 to 3 µM
Cc1cccc(C)c1-c1cc2nc(n1)NS(=O)(=O)c1cccc(c1)C(=O)N[C@@H]1CN(C3CCC4(CC3)CC4)CC[C@H]1O2 [Compound 374]	–	–	Ent. A Max Activity (Table 9): +++ (+++ is >60%); EC50 (Table 9): 1 to 3 µM
Cc1cccc(C)c1-c1cc2nc(n1)NS(=O)(=O)c1cccc(c1)C(=O)N[C@H]1CCN(C3CC4(CCCC4)C3)C[C@H]1O2 [Compound 384]	–	–	Ent. A Max Activity (Table 9): +++ (+++ is >60%); EC50 (Table 9): 1 to 3 µM
CCC(CC)[C@@H]1COc2cc(-c3c(C)cccc3C)nc(n2)NS(=O)(=O)c2cccc(c2)C(=O)N1 [Compound 386]	–	–	Ent. A Max Activity (Table 8): +++ (+++ is >60%); EC50 (Table 8): < 1 µM
CC(C)C[C@@H]1COc2cc(-c3ccccc3Oc3ccccc3)nc(n2)NS(=O)(=O)c2cccc(c2)C(=O)N1 [Compound 392]	–	–	Ent. A Max Activity (Table 9): ++ (++ is 30-60%); EC50 (Table 9): < 1 µM
CC(C)C[C@@H]1COc2cc(-c3ccccc3OCc3ccccc3)nc(n2)NS(=O)(=O)c2cccc(c2)C(=O)N1 [Compound 393]	–	–	Ent. A Max Activity (Table 9): +++ (+++ is >60%); EC50 (Table 9): < 1 µM
Cc1ccc(Cc2cccc(C)c2-c2cc3nc(n2)NS(=O)(=O)c2cccc(c2)C(=O)N[C@H](CC(C)C)CO3)cc1 [Compound 394]	–	–	Ent. A Max Activity (Table 9): +++ (+++ is >60%); EC50 (Table 9): < 1 µM
Cc1cccc(CO)c1-c1cc2nc(n1)NS(=O)(=O)c1cccc(c1)C(=O)N[C@H](CC(C)C)CO2 [Compound 395]	–	–	Ent. A Max Activity (Table 9): ++ (++ is 30-60%); EC50 (Table 9): 3 to 30 µM
Cc1cccc(C)c1-c1cc2nc(n1)NS(=O)(=O)c1cccc(c1)C(=O)NCC(c1ccc(C34CC(C3)C4)cc1)O2 (stereo not shown) [Compound 397]	–	–	Ent. A Max Activity (Table 9): + (+ is <30%); EC50 (Table 9): 3 to 30 µM
Cc1cccc(C)c1-c1cc2nc(n1)NS(=O)(=O)c1cccc(c1)C(=O)NCC(c1ccc(C34CC(C3)C4)cc1)O2 (stereo not shown) [Compound 398]	–	–	Ent. A Max Activity (Table 9): +++ (+++ is >60%); EC50 (Table 9): < 1 µM
Cc1cccc(C)c1-c1cc2nc(n1)NS(=O)(=O)c1cccc(c1)C(=O)NCC(c1ccc(C(F)(F)F)cc1)O2 (stereo not shown) [Compound 403]	–	–	EC50 (Table 8): < 1 µM
Cc1cccc(C2CNC(=O)c3cccc(c3)S(=O)(=O)Nc3nc(cc(-c4c(C)cccc4C)n3)O2)c1 (stereo not shown) [Compound 404]	–	–	Ent. A Max Activity (Table 8): +++ (+++ is >60%); EC50 (Table 8): < 1 µM
Cc1ccc(C2CNC(=O)c3cccc(c3)S(=O)(=O)Nc3nc(cc(-c4c(C)cccc4C)n3)O2)cc1 (stereo not shown) [Compound 406]	–	–	Ent. A Max Activity (Table 8): + (+ is <30%)
Cc1ccc(C2CNC(=O)c3cccc(c3)S(=O)(=O)Nc3nc(cc(-c4c(C)cccc4C)n3)O2)cc1 (stereo not shown) [Compound 407]	–	–	Ent. A Max Activity (Table 8): +++ (+++ is >60%); EC50 (Table 8): < 1 µM
Cc1cccc(C)c1-c1cc2nc(n1)NS(=O)(=O)c1cccc(c1)C(=O)NCC(CN1CCCCC1)O2 (stereo not shown) [Compound 410]	–	–	EC50 (Table 8): 3 to 30 µM
Cc1cccc(C)c1-c1cc2nc(n1)NS(=O)(=O)c1cncc(c1)C(=O)N[C@H](CC(C)C)CO2 [Compound 413]	–	–	Ent. A Max Activity (Table 8): +++ (+++ is >60%); EC50 (Table 8): 1 to 3 µM
Cc1cccc(C)c1-c1cc2nc(n1)NS(=O)(=O)c1cccc(c1)C(=O)NCC1(CCN(Cc3cccc(OC(F)(F)F)c3F)CC1)CO2 [Compound 431]	++ (++ is 30-60%)	< 1	–
Cc1cccc(C)c1-c1cc2nc(n1)NS(=O)(=O)c1cccc(c1)C(=O)NCC1(CCN(Cc3ccc(NC(=O)OC(C)(C)C)nc3)CC1)CO2 [Compound 433]	++ (++ is 30-60%)	3 to 30	–
COC(=O)c1cc(CN2CCC3(CC2)CNC(=O)c2cccc(c2)S(=O)(=O)Nc2nc(cc(-c4c(C)cccc4C)n2)OC3)ccc1F [Compound 437]	++ (++ is 30-60%)	3 to 30	–
COc1cc(C)c(CN2CCC3(CC2)CNC(=O)c2cccc(c2)S(=O)(=O)Nc2nc(cc(-c4c(C)cccc4C)n2)OC3)cc1C [Compound 438]	++ (++ is 30-60%)	1 to 3	–
Cc1cccc(C)c1-c1cc2nc(n1)NS(=O)(=O)c1cccc(c1)C(=O)NCC1(CCN(C[C@H]3COC(C)(C)N3C(=O)OC(C)(C)C)CC1)CO2 [Compound 439]	++ (++ is 30-60%)	3 to 30	–
Cc1cccc(C)c1-c1cc2nc(n1)NS(=O)(=O)c1cccc(c1)C(=O)NCC1(CCN(CCC(C)CC(C)(C)C)CC1)CO2 (stereo not shown) [Compound 441]	+++ (+++ is >600%)	< 1	–
Cc1cccc(C)c1-c1cc2nc(n1)NS(=O)(=O)c1cccc(c1)C(=O)NCC1(CCN(Cc3ccccc3)CC1)CO2 [Compound 442]	–	3 to 30	–
Cc1cccc(C)c1-c1cc2nc(n1)NS(=O)(=O)c1cccc(c1)C(=O)NCC1(CCN(CCC(C)(C)C)CC1)CO2 [Compound 443]	++ (++ is 30-60%)	–	–
Cc1cccc(C)c1-c1cc2nc(n1)NS(=O)(=O)c1cccc(c1)C(=O)NCC1(CCN(CCc3ccccc3)CC1)CO2 [Compound 444]	++ (++ is 30-60%)	3 to 30	–
Cc1cccc(C)c1-c1cc2nc(n1)NS(=O)(=O)c1cccc(c1)C(=O)NCC1(CCN(CCOCc3ccccc3)CC1)CO2 [Compound 445]	++ (++ is 30-60%)	3 to 30	–
COc1ccc2c(c1)c(C(=O)N1CCC3(CC1)CNC(=O)c1cccc(c1)S(=O)(=O)Nc1nc(cc(-c4c(C)cccc4C)n1)OC3)c(C)n2C1CC1 [Compound 451]	++ (++ is 30-60%)	3 to 30	–

Now from value to molecule, other results behind:

Ent. A Max Activity (Enteroid Assay A)	EC50 (Enteroid Assay A) [µM]	Structure (SMILES)	also measured
++ (++ is 30-60%)	–	CCCC(NC(=O)OC(C)(C)C)C(=O)N1CCC2(CC1)CNC(=O)c1cccc(c1)S(=O)(=O)Nc1nc(cc(-c3c(C)cccc3C)n1)OC2 (stereo not shown) [Compound 449]	–
++ (++ is 30-60%)	3 to 30	Cc1cccc(C)c1-c1cc2nc(n1)NS(=O)(=O)c1cccc(c1)C(=O)NCC1(CCN(C(=O)C(CC(C)C)NC(=O)OC(C)(C)C)CC1)CO2 (stereo not shown) [Compound 450]	–
++ (++ is 30-60%)	1 to 3	Cc1cccc(C)c1-c1cc2nc(n1)NS(=O)(=O)c1cccc(c1)C(=O)NCC1(CCN(C(=O)c3cc4ccccc4n3CC#N)CC1)CO2 [Compound 452]	–
++ (++ is 30-60%)	1 to 3	Cc1cccc(C)c1-c1cc2nc(n1)NS(=O)(=O)c1cccc(c1)C(=O)NCC1(CCN(C(=O)c3c(C)c4ccccc4n3C)CC1)CO2 [Compound 455]	–
++ (++ is 30-60%)	3 to 30	Cc1cccc(C)c1-c1cc2nc(n1)NS(=O)(=O)c1cccc(c1)C(=O)NCC1(CCN(C(=O)C3CCCCN3Cc3ccc(F)cc3)CC1)CO2 (stereo not shown) [Compound 456]	–
++ (++ is 30-60%)	1 to 3	COc1cccc(-c2cccc(C(=O)N3CCC4(CC3)CNC(=O)c3cccc(c3)S(=O)(=O)Nc3nc(cc(-c5c(C)cccc5C)n3)OC4)c2)c1 [Compound 459]	–
++ (++ is 30-60%)	–	Cc1nc(C(F)(F)F)c(C(=O)N2CCC3(CC2)CNC(=O)c2cccc(c2)S(=O)(=O)Nc2nc(cc(-c4c(C)cccc4C)n2)OC3)s1 [Compound 460]	–
++ (++ is 30-60%)	–	Cc1cccc(C)c1-c1cc2nc(n1)NS(=O)(=O)c1cccc(c1)C(=O)NCC1(CCN(C(=O)c3cc4c(cc3O)CCCC4)CC1)CO2 [Compound 462]	–
+++ (+++ is >600%)	1 to 3	Cc1cccc(C)c1-c1cc2nc(n1)NS(=O)(=O)c1cccc(c1)C(=O)NCC1(CCN(C(=O)C3(c4ccc5c(c4)CCC5)CC3)CC1)CO2 [Compound 464]	–
++ (++ is 30-60%)	1 to 3	Cc1cccc(C)c1-c1cc2nc(n1)NS(=O)(=O)c1cccc(c1)C(=O)NCC1(CCN(C(=O)[C@H]3[C@H](c4ccccc4)C3(C)C)CC1)CO2 [Compound 465]	–
++ (++ is 30-60%)	1 to 3	Cc1cccc(C)c1-c1cc2nc(n1)NS(=O)(=O)c1cccc(c1)C(=O)NCC1(CCN(C(=O)CO[C@@H]3C[C@H](C)CC[C@H]3C(C)C)CC1)CO2 [Compound 468]	–
++ (++ is 30-60%)	3 to 30	CCC[C@H](NC(=O)OC(C)(C)C)C(=O)N1CCC2(CC1)CNC(=O)c1cccc(c1)S(=O)(=O)Nc1nc(cc(-c3c(C)cccc3C)n1)OC2 [Compound 469]	–
++ (++ is 30-60%)	–	Cc1cccc(C)c1-c1cc2nc(n1)NS(=O)(=O)c1cccc(c1)C(=O)NCC1(CCN(C(=O)C3CC[C@@H](NC(=O)OC(C)(C)C)C3)CC1)CO2 (stereo partly shown) [Compound 470]	–
++ (++ is 30-60%)	–	Cc1cccc(C)c1-c1cc2nc(n1)NS(=O)(=O)c1cccc(c1)C(=O)NCC1(CCN(C(=O)C3CSCCN3C(=O)OC(C)(C)C)CC1)CO2 (stereo not shown) [Compound 471]	–
++ (++ is 30-60%)	3 to 30	Cc1cccc(C)c1-c1cc2nc(n1)NS(=O)(=O)c1cccc(c1)C(=O)NCC1(CCN(C(=O)[C@]3(C)CCCN3C(=O)OC(C)(C)C)CC1)CO2 [Compound 472]	–
–	3 to 30	Cc1cccc(C)c1-c1cc2nc(n1)NS(=O)(=O)c1cccc(c1)C(=O)NCC1(CCN(C(=O)c3ccccc3)CC1)CO2 [Compound 474]	–
++ (++ is 30-60%)	–	Cc1cccc(C)c1-c1cc2nc(n1)NS(=O)(=O)c1cccc(c1)C(=O)NCC1(CCN(C(=O)CC(C)(C)C)CC1)CO2 [Compound 481]	–
